Results published in ChEMBL document CHEMBL4699602, “Stapled and Xenopus Glucagon-Like Peptide 1 (GLP-1)-Based Dual GLP-1/Gastrin Receptor Agonists with Improved Metabolic Benefits in Rodent Models of Obesity and Diabetes” (J Med Chem, 2020).
*1 amine or outer side, *2 acyl side, *3 side chain or, on linkers, in order; H or OH if unused. Where a SMILES comes first, the peptide text is derived from it. Bridges are numbered along the chain shown (N, C = ends). [ ]: non-standard residue; d: D form. X4 = O=C(O)CCCCCCCCCCCCCCCCC(=O)NC(CCC(=O)NCCOCCOCC(=O)NCCOCCOCC(=O)NCCCCCCNC(=O)C(CCCCNC(=O)CCN1C(=O)CC([*:1])C1=O)NC(=O)CCN1C(=O)CC([*:2])C1=O)C(=O)O; X2 = O=C(O)CCCCCCCCCCCCCCCCC(=O)NC(CCC(=O)NCCOCCOCC(=O)NCCCCCCNC(=O)C(CCCCNC(=O)CCN1C(=O)CC([*:2])C1=O)NC(=O)CCN1C(=O)CC([*:1])C1=O)C(=O)O; X3 = O=C(O)CCCCCCCCCCCCCCCCC(=O)NC(CCC(=O)NCCOCCOCC(=O)NCCCCCCNC(=O)C(CCCCNC(=O)CCN1C(=O)CC([*:1])C1=O)NC(=O)CCN1C(=O)CC([*:2])C1=O)C(=O)O; X7 = O=C(O)CCCCCCCCCCCCCCCCC(=O)NCCOCCOCC(=O)NCCCCCCNC(=O)C(CCCCNC(=O)CCN1C(=O)CC([*:1])C1=O)NC(=O)CCN1C(=O)CC([*:2])C1=O; X8 = O=C(O)CCCCCCCCCCCCCCCCC(=O)NCCOCCOCC(=O)NCCCCCCNC(=O)C(CCCCNC(=O)CCN1C(=O)CC([*:2])C1=O)NC(=O)CCN1C(=O)CC([*:1])C1=O; X1 = CCCCCCCCCCCCCCCC(=O)NCCCCCCNC(=O)C(CCCCNC(=O)CCN1C(=O)CC([*:1])C1=O)NC(=O)CCN1C(=O)CC([*:2])C1=O; X6 = CCCCCCCCCCCCCCCC(=O)NCCCCCCNC(=O)C(CCCCNC(=O)CCN1C(=O)CC([*:2])C1=O)NC(=O)CCN1C(=O)CC([*:1])C1=O; Aib = CC(C)(N)C(=O)O

How the values were obtained:
[1] = molecular target: T1, Glucagon-like peptide 1 receptor (Homo sapiens, UniProt P43220); assay: Agonist activity at human GLP-1R expressed in HEK293 cells assessed as stimulation of cAMP accumulation incubated for 20 mins in presence of 0% HSA; type: functional, cell-based
[2] = molecular target: T1, Glucagon-like peptide 1 receptor; assay: Agonist activity at human GLP-1R expressed in HEK293 cells assessed as stimulation of cAMP accumulation incubated for 20 mins in presence of 4.4% HSA; type: functional, cell-based
[3] = molecular target: T1, Glucagon-like peptide 1 receptor; assay: Ratio of EC50 for agonist activity at human GLP-1R expressed in HEK293 cells in presence of 4.4% HSA to EC50 for agonist activity at human GLP-1R expressed in HEK293 cells in presence of 0% HSA; type: cell-based

T1 sequence (P43220 whole entry): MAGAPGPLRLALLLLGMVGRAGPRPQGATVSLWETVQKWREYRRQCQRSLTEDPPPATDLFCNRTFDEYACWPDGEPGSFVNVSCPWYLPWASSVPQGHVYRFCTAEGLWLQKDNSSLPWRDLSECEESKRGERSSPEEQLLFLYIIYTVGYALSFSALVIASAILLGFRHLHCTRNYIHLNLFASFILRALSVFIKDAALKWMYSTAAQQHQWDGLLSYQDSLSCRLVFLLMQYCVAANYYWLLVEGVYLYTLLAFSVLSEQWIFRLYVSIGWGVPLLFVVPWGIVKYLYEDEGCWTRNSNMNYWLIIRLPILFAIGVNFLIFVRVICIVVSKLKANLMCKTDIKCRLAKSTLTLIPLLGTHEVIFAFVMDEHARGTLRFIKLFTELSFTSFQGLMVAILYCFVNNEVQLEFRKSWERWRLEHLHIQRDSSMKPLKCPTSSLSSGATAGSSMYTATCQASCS

Compound	EC50 [1]	EC50 [2]	Ratio EC50 [3]
CC[C@H](C)[C@@H]1NC(=O)[C@H](CC(C)C)NC(=O)[C@H](Cc2c[nH]c3ccccc23)NC(=O)[C@H](CCC(=O)O)NC(=O)[C@H]([C@@H](C)CC)NC(=O)[C@H](Cc2ccccc2)NC(=O)[C@@H](NC(=O)[C@H](CCCCN)NC(=O)[C@H](C)NC(=O)[C@H](C)NC(=O)[C@H](CCC(=O)O)NC(=O)[C@H](CCC(=O)O)NC(=O)[C@H](CCC(=O)O)NC(=O)[C@H](CC(C)C)NC(=O)[C@H](Cc2ccc(O)cc2)NC(=O)[C@H](CCC(=O)O)NC(=O)[C@@H](NC(=O)[C@@H](NC(=O)[C@H](CC(=O)O)NC(=O)[C@H](CC(N)=O)NC(=O)[C@@H](NC(=O)[C@H](Cc2ccc(O)cc2)NC(=O)[C@@H](NC(=O)CNC(=O)[C@H](CCC(=O)O)NC(=O)C(C)(C)NC(=O)[C@@H](N)Cc2c[nH]cn2)[C@@H](C)O)[C@@H](C)O)C(C)C)[C@@H](C)O)CSC2CC(=O)N(CCC(=O)NCCCCC(C(=O)NCCCCCCNC(=O)COCCOCCNC(=O)COCCOCCNC(=O)CCC(NC(=O)CCCCCCCCCCCCCCCCC(=O)O)C(=O)O)NC(=O)CCN3C(=O)CC(SC[C@@H](C(=O)NCC(=O)N[C@@H](CCCCN)C(=O)N4CCC[C@H]4C(=O)N[C@@H](CO)C(=O)N[C@@H](CO)C(=O)NCC(=O)N[C@@H](C)C(=O)N4CCC[C@H]4C(=O)N4CCC[C@H]4C(=O)N4CCC[C@H]4C(=O)N[C@@H](CO)C(N)=O)NC1=O)C3=O)C2=O (stereo partly specified) (HELM PEPTIDE1{H.[Aib].E.G.T.Y.T.N.D.V.T.E.Y.L.E.E.E.A.A.K.C.F.I.E.W.L.I.C.G.K.P.S.S.G.A.P.P.P.S.[am]}|CHEM1{[O=C(O)CCCCCCCCCCCCCCCCC(=O)NC(CCC(=O)NCCOCCOCC(=O)NCCOCCOCC(=O)NCCCCCCNC(=O)C(CCCCNC(=O)CCN1C(=O)CC([*:1])C1=O)NC(=O)CCN1C(=O)CC([*:2])C1=O)C(=O)O]}$PEPTIDE1,CHEM1,21:R3-1:R1|PEPTIDE1,CHEM1,28:R3-1:R2$$$V2.0)	0.17 nM	16.5 nM	97.1
CC[C@H](C)[C@@H]1NC(=O)[C@H](CC(C)C)NC(=O)[C@H](Cc2c[nH]c3ccccc23)NC(=O)[C@H](CCC(=O)O)NC(=O)[C@H]([C@@H](C)CC)NC(=O)[C@H](Cc2ccccc2)NC(=O)[C@@H](NC(=O)[C@H](CCCCN)NC(=O)[C@H](C)NC(=O)[C@H](C)NC(=O)[C@H](CCC(=O)O)NC(=O)[C@H](CCC(=O)O)NC(=O)[C@H](CCC(=O)O)NC(=O)[C@H](CC(C)C)NC(=O)[C@H](Cc2ccc(O)cc2)NC(=O)[C@H](CCC(=O)O)NC(=O)[C@@H](NC(=O)[C@@H](NC(=O)[C@H](CC(=O)O)NC(=O)[C@H](CC(N)=O)NC(=O)[C@@H](NC(=O)[C@H](Cc2ccc(O)cc2)NC(=O)[C@@H](NC(=O)CNC(=O)[C@H](CCC(=O)O)NC(=O)C(C)(C)NC(=O)[C@@H](N)Cc2c[nH]cn2)[C@@H](C)O)[C@@H](C)O)C(C)C)[C@@H](C)O)CSC2CC(=O)N(CCC(=O)NCCCCC(C(=O)NCCCCCCNC(=O)COCCOCCNC(=O)CCCCCCCCCCCCCCCCC(=O)O)NC(=O)CCN3C(=O)CC(SC[C@@H](C(=O)NCC(=O)N[C@@H](CCCCN)C(=O)N4CCC[C@H]4C(=O)N[C@@H](CO)C(=O)N[C@@H](CO)C(=O)NCC(=O)N[C@@H](C)C(=O)N4CCC[C@H]4C(=O)N4CCC[C@H]4C(=O)N4CCC[C@H]4C(=O)N[C@@H](CO)C(N)=O)NC1=O)C3=O)C2=O (stereo partly specified) (HELM PEPTIDE1{H.[Aib].E.G.T.Y.T.N.D.V.T.E.Y.L.E.E.E.A.A.K.C.F.I.E.W.L.I.C.G.K.P.S.S.G.A.P.P.P.S.[am]}|CHEM1{[O=C(O)CCCCCCCCCCCCCCCCC(=O)NCCOCCOCC(=O)NCCCCCCNC(=O)C(CCCCNC(=O)CCN1C(=O)CC([*:1])C1=O)NC(=O)CCN1C(=O)CC([*:2])C1=O]}$PEPTIDE1,CHEM1,21:R3-1:R1|PEPTIDE1,CHEM1,28:R3-1:R2$$$V2.0)	0.15 nM	2.3 nM	15.3
CCCCCCCCCCCCCCCC(=O)NCCCCCCNC(=O)C1CCCCNC(=O)CCN2C(=O)CC(SC[C@@H](C(=O)NCC(=O)N[C@@H](CCCCN)C(N)=O)NC(=O)[C@H]([C@@H](C)CC)NC(=O)[C@H](CC(C)C)NC(=O)[C@H](Cc3c[nH]c4ccccc34)NC(=O)[C@H](CCC(=O)O)NC(=O)[C@H]([C@@H](C)CC)NC(=O)[C@H](Cc3ccccc3)NC(=O)[C@@H](NC(=O)[C@H](CCCCN)NC(=O)[C@H](C)NC(=O)[C@H](C)NC(=O)[C@H](CCC(=O)O)NC(=O)[C@H](CCC(=O)O)NC(=O)[C@H](CCC(=O)O)NC(=O)[C@H](CC(C)C)NC(=O)[C@H](Cc3ccc(O)cc3)NC(=O)[C@H](CCC(=O)O)NC(=O)[C@@H](NC(=O)[C@@H](NC(=O)[C@H](CC(=O)O)NC(=O)[C@H](CC(N)=O)NC(=O)[C@@H](NC(=O)[C@H](Cc3ccc(O)cc3)NC(=O)[C@@H](NC(=O)CNC(=O)[C@H](CCC(=O)O)NC(=O)C(C)(C)NC(=O)[C@@H](N)Cc3c[nH]cn3)[C@@H](C)O)[C@@H](C)O)C(C)C)[C@@H](C)O)CSC3CC(=O)N(CCC(=O)N1)C3=O)C2=O (stereo partly specified) (HELM PEPTIDE1{H.[Aib].E.G.T.Y.T.N.D.V.T.E.Y.L.E.E.E.A.A.K.C.F.I.E.W.L.I.C.G.K.[am]}|CHEM1{[CCCCCCCCCCCCCCCC(=O)NCCCCCCNC(=O)C(CCCCNC(=O)CCN1C(=O)CC([*:2])C1=O)NC(=O)CCN1C(=O)CC([*:1])C1=O]}$PEPTIDE1,CHEM1,21:R3-1:R1|PEPTIDE1,CHEM1,28:R3-1:R2$$$V2.0)	0.12 nM	2.2 nM	18.3
CC[C@H](C)[C@@H]1NC(=O)[C@H](CC(C)C)NC(=O)[C@H](Cc2c[nH]c3ccccc23)NC(=O)[C@H](CCC(=O)O)NC(=O)[C@H]([C@@H](C)CC)NC(=O)[C@H](Cc2ccccc2)NC(=O)[C@@H](NC(=O)[C@H](CCCCN)NC(=O)[C@H](C)NC(=O)[C@H](C)NC(=O)[C@H](CCC(=O)O)NC(=O)[C@H](CCC(=O)O)NC(=O)[C@H](CCC(=O)O)NC(=O)[C@H](CC(C)C)NC(=O)[C@H](Cc2ccc(O)cc2)NC(=O)[C@H](CCC(=O)O)NC(=O)[C@@H](NC(=O)[C@@H](NC(=O)[C@H](CC(=O)O)NC(=O)[C@H](CC(N)=O)NC(=O)[C@@H](NC(=O)[C@H](Cc2ccc(O)cc2)NC(=O)[C@@H](NC(=O)CNC(=O)[C@H](CCC(=O)O)NC(=O)C(C)(C)NC(=O)[C@@H](N)Cc2c[nH]cn2)[C@@H](C)O)[C@@H](C)O)C(C)C)[C@@H](C)O)CSC2CC(=O)N(CCC(=O)NC(C(=O)NCCCCCCNC(=O)COCCOCCNC(=O)COCCOCCNC(=O)CCC(NC(=O)CCCCCCCCCCCCCCCCC(=O)O)C(=O)O)CCCCNC(=O)CCN3C(=O)CC(SC[C@@H](C(=O)NCC(=O)N[C@@H](CCCCN)C(N)=O)NC1=O)C3=O)C2=O (stereo partly specified) (HELM PEPTIDE1{H.[Aib].E.G.T.Y.T.N.D.V.T.E.Y.L.E.E.E.A.A.K.C.F.I.E.W.L.I.C.G.K.[am]}|CHEM1{[O=C(O)CCCCCCCCCCCCCCCCC(=O)NC(CCC(=O)NCCOCCOCC(=O)NCCOCCOCC(=O)NCCCCCCNC(=O)C(CCCCNC(=O)CCN1C(=O)CC([*:2])C1=O)NC(=O)CCN1C(=O)CC([*:1])C1=O)C(=O)O]}$PEPTIDE1,CHEM1,21:R3-1:R1|PEPTIDE1,CHEM1,28:R3-1:R2$$$V2.0)	0.19 nM	18.2 nM	95.8
CC[C@H](C)[C@@H]1NC(=O)[C@H](CC(C)C)NC(=O)[C@H](Cc2c[nH]c3ccccc23)NC(=O)[C@H](CCC(=O)O)NC(=O)[C@H]([C@@H](C)CC)NC(=O)[C@H](Cc2ccccc2)NC(=O)[C@@H](NC(=O)[C@H](CCCCN)NC(=O)[C@H](C)NC(=O)[C@H](C)NC(=O)[C@H](CCC(=O)O)NC(=O)[C@H](CCC(=O)O)NC(=O)[C@H](CCC(=O)O)NC(=O)[C@H](CC(C)C)NC(=O)[C@H](Cc2ccc(O)cc2)NC(=O)[C@H](CCC(=O)O)NC(=O)[C@@H](NC(=O)[C@@H](NC(=O)[C@H](CC(=O)O)NC(=O)[C@H](CC(N)=O)NC(=O)[C@@H](NC(=O)[C@H](Cc2ccc(O)cc2)NC(=O)[C@@H](NC(=O)CNC(=O)[C@H](CCC(=O)O)NC(=O)C(C)(C)NC(=O)[C@@H](N)Cc2c[nH]cn2)[C@@H](C)O)[C@@H](C)O)C(C)C)[C@@H](C)O)CSC2CC(=O)N(CCC(=O)NC(C(=O)NCCCCCCNC(=O)COCCOCCNC(=O)CCCCCCCCCCCCCCCCC(=O)O)CCCCNC(=O)CCN3C(=O)CC(SC[C@@H](C(=O)NCC(=O)N[C@@H](CCCCN)C(N)=O)NC1=O)C3=O)C2=O (stereo partly specified) (HELM PEPTIDE1{H.[Aib].E.G.T.Y.T.N.D.V.T.E.Y.L.E.E.E.A.A.K.C.F.I.E.W.L.I.C.G.K.[am]}|CHEM1{[O=C(O)CCCCCCCCCCCCCCCCC(=O)NCCOCCOCC(=O)NCCCCCCNC(=O)C(CCCCNC(=O)CCN1C(=O)CC([*:2])C1=O)NC(=O)CCN1C(=O)CC([*:1])C1=O]}$PEPTIDE1,CHEM1,21:R3-1:R1|PEPTIDE1,CHEM1,28:R3-1:R2$$$V2.0)	0.19 nM	2.6 nM	13.7
H-H[Aib]EGTYTNDVTEYCEEEAAKCFIEWLIKGKPSSGAPPSKKKKKK-NH2 (linker 14-21 via X1)	0.093 nM	1.4 nM	15.1
H-H[Aib]EGTYTNDVTEYCEEEAAKCFIEWLIKGKPSSGAPPSKKKKKK-NH2 (linker 14-21 via X3)	0.16 nM	6.5 nM	40.6
H-H[Aib]EGTYTNDVTEYCEEEAAKCFIEWLIKGKPSSGAPPSKKKKKK-NH2 (linker 14-21 via X4)	0.15 nM	12.7 nM	84.7
H-H[Aib]EGTYTNDVTEYCEEEAAKCFIEWLIKGKPSSGAPPSKKKKKK-NH2 (linker 14-21 via X7)	0.1 nM	1.4 nM	14
H-H[Aib]EGTYTNDVTEYLEEEAAKCFIEWLICGKPSSGAPPSKKKKKK-NH2 (linker 21-28 via X2)	0.18 nM	6.9 nM	38.3
H-H[Aib]EGTYTNDVTEYLEEEAAKCFIEWLICGKPSSGAPPSKKKKKK-NH2 (linker 21-28 via X6)	0.14 nM	1.9 nM	13.6
H-H[Aib]EGTYTNDVTEYLEEEAAKCFIEWLICGKPSSGAPPSKKKKKK-NH2 (linker 21-28 via X8)	0.12 nM	1.5 nM	12.5
